This test has as its system tetracycline transactivator (tTA). Put plainly: Tetracycline internal control: luciferase assay in 293 cells co-transfected with chimera G and pUHC13-3 reporter. It is filed as cell-based. The note with it: in the presence of tetracycline (over 2,000,000 cps in its absence). The text has this: Expression of the luciferase reporter gene is controlled by NS3 processing of a tetracycline responsive transcriptional trans-activator. Luciferase assay performed on extracts of 293 cells co-transfected with construct G or H, or the positive control tTA-producing plasmid (pUHD15-1), and the pUHC13-3 plasmid containing the luciferase reporter. Closed and open bars indicate the absence and presence of tetracycline, respectively. Note that construct G produces a tetracycline controlled signal; inactivation of the NS3 protease activity (in construct H) abolishes this signal.
The three families (clones A, D, and G) of HCV-tTA chimeras, and their active site and cleavage site mutant variants, were each co-transfected with the pUHC13-3 reporter into 293 cells to determine the extent of NS3-dependent luciferase expression (FIG. 6). Cells in 35 mm wells were co-transfected with each of the constructs described in FIGS. 2A to 2I and the pUHC13-3 reporter plasmid using the calcium phosphate method. The cells were harvested 48 hours post-transfection and washed twice in phosphate buffered saline. […] An aliquot of 10 μl of supernatant was mixed with 50 μl of the luciferase assay reagent (Promega) in a 96 well plate and the amount of light produced measured using a Digene luminometer or Packard top-count scintillation counter. […]

This passage reports Luciferase activity results from patent US7838207B2, “Surrogate cell-based system and method for assaying the activity of hepatitis C virus NS3 protease” (Boehringer Ingelheim Canada Ltd., priority 1999, dated 2010).

Consider `CN(C)[C@@H]1C(O)=C(C(N)=O)C(=O)[C@@]2(O)C(O)=C3C(=O)c4c(O)cccc4[C@@](C)(O)[C@H]3C[C@@H]12` [tetracycline], for which the Luciferase activity was 40000 cps.
